Consider 7 compounds from EP2889299A1, “Fluorescent red emitting functionalizable pH probes” (Paris Sciences et Lettres - Quartier Latin, priority 2013, dated 2015).

Where two headings read alike, the source gives them in different places.

Series [1] in a line: Optical properties of the second (blue) fluorophore. Type of series: physicochemical. The settings on record: measured in CH3CN/H2O. From the text: In addition to having the correct absorption and emission wavelengths, the chosen second fluorophore must feature a terminal alkyne to make it "clickable" with the azide-containing pH probe I-1. The acridone 5 was selected, having the following optical properties (measured in CH3CN/H2O): […]

In series [2] the test system is F98 cells. Kind of series: Dose response by flow cytometry (probe internalization). The following applies: F98 cells incubated for two hours. The format is cell-based, rat. Here is the method:
Cell calture for flow cytometry, dose response and cellular imaging: F98 and CHO-K1 cell lines (purchased from ATCC) were maintained at 37°C in 5% CO2 in DMEM/F-12 nutrient medium (Invitrogen, Cergy Pontoise, France) supplemented with 2% (v/v) heat-inactivated fetal bovine serum (Invitrogen) and 100 µg/mL streptomycine and 100 units/mL penicillin (Invitrogen).
Fluorescence Activated Cell Sorting Analyses: F98 cells were incubated with various concentrations of pH probes in DMEM/F-12 culture medium without serum at 37 °C for 2h. The cells were washed with PBS to remove excess fluorescent probe and were treated with 0.05% Trypsin-EDTA for 2 min at 37°C to detach the cells from the surface, and centrifuged at 200 g in DMEM/F-12 culture medium before suspension in PBS. Flow cytometry analyses were performed with live cells using an Accuri C6 flow cytometer (BD Biosciences, Le Pont de Claix, France). The data was obtained and analysed using CFlow Sampler (BD Biosciences). Live cells were gated by forward/side scattering for a total of 10,000 events.
Undifferentiated malignant glioma rat cells (F98) were incubated with probe I-1 for two hours at increasing concentrations and the fluorescence intensity measured. Results are represented in figure 7.

Series [3] can be described thus: Absorption spectra and molar extinction coefficient (Beer Lambert law). Type of series: physicochemical. The following applies: for λabs: maximum absorption wavelength. As to the method: (§1) All the solvents were of analytical grade. Chemicals were purchased from commercial sources. The salts used in stock solutions of metal ions were CaCl2·2H2O, CuCl2·2H2O, FeCl3·6H2O, MgCl2·6H2O, MnCl2·4H2O, ZnBr2. ^1H-NMR and ^13C-NMR were measured on a Bruker avance III-300 MHz spectrometer with chemical shifts reported in ppm (TMS as internal standard). Mass spectra were measured on a Focus GC / DSQ II spectrometer (ThermoScientific) for IC and an API 3000 spectrometer (Applied Biosystems, PE Sciex) for ES. All pH measurements were made with a Mettler Toledo pH-Meter. Fluorescence spectra were recorded on a JASCO FP-8300 spectrofluorometer. Absorption spectra were determined on a VARIAN CARY 300 Bio UV-Visible spectrophotometer. All measurements were done at a set temperature of 25°C. The purity of the dyes were checked by RP-HPLC C-18, eluant: ACN 0.1% TFA/Water 0.1 % TFA, method: 20/80 to 100/0 within 20 min. then 100/0 for 10 min. detection at λabs= 254 nm.
Molar extinction coefficient calculations. Extinction coefficients (ε) were calculated using the Beer Lambert law (equation 3) plotting optical density/absorption versus concentration for the pH probes. The gradient of the plot is equal to ε. A = εc1 [formula] • A = optical density/absorption • ε = extinction coefficient = gradient of the plot • c = concentration • 1= optical path length (1 cm)
The dependence of absorption on pH for probe I-1 was determined in a MOPS buffered aqueous solution. Results are represented in figure 2.

Series [4] is described as follows: pKa calculation from fluorescence intensity versus pH (Hill equation fit). The format is physicochemical. The settings on record: fluorescence intensity at λem,max versus pH, 25°C. As to the method: pKa calculations. pKa values were calculated by plotting the fluorescence intensity at λem.,max versus the pH. The data was fit to the Hill Equation (equation 4) and the pKa taken as x1/2 as per the Hill equation. base + ((max-base))/(1 + (((x1/2)/(x)))^rate) [formula] • base = y value at minimum x-value • max = y value at maximum x-value • rate = rise rate of the curve • x1/2 = x value at which y = (base + max)/2.
The dependence of fluorescence enhancement on pH was determined for probes I-1, I-3 and I-4. Results are represented in figure 4A, 4B, and 4C respectively. Curve fitting was based on a modified Hill equation from which pKa values were calculated.

A short description of series [5]: Fluorescence spectra, quantum yield and dynamic range. The format is physicochemical. The following applies: for λem: excitation at 535 nm, maximum emission wavelength; for Φ: MOPS 30 mM, KCl 100 mM, reference Rhodamine 101, excitation 535 nm; for Dynamic Range: maximal value of (I-Imin)/Imin; for ΦON/ ΦOFF: ratio of quantum yields at pH 4 and pH 10. As to the method:
as §1
Dynamic range. The term dynamic range refers to the maximal value of equation 1 where I is the observed fluorescence intensity and Imin is the minimum fluorescence intensity observed for that probe. The larger the dynamic range the better as it indicates good differentiation between "on" and "off' states. Dynamic Range = ((I-Imin))/(Imin) [formula]
Quantum yield calculations. The fluorescence quantum yields (Φ) were calculated from the gradient of integrated fluorescence intensity (545 to 700 nm) versus optical density. Rhodamine 101 (Φ = 1.0 in absolute ethanol) was used as a reference standard (ref) with the excitation wavelength at 535 nm. Equation 2 was used to determine the Φ values. Φ = Φref (grad.)/(grad.ref).(η^2)/(ηref^2) [formula] • Φ = quantum yield • η = refractive index of the solvent system (η (H2O) = 1.33, ηref (EtOH) = 1.36) grad. = gradient of the curve
ΦON (pH = 4) and ΦOFF (pH = 10) were calculated for each pH probe in MOPS 30 mM, KCl 100 mM.
The dependence of fluorescence intensity on pH for probe I-1 was determined in a MOPS buffered aqueous solution after excitation at 535 nm. Results are represented in figure 3.

A short description of series [6]: Fluorescence of the ratiometric dual-fluorophore probe as a function of pH. Type of series: physicochemical. From the text: • Figure 1 is a drawing schematically representing the red-emitting pH probe of the invention. • Figure 2 is a graph representing the dependence of absorption on pH in a MOPS buffered aqueous solution for compound I-1. • Figure 3 is a graph representing the dependence of fluorescence intensity on pH in a MOPS buffered aqueous solution after excitation at 535 nm, for compound I-1. • Figure 4A-4C are graphs representing the dependence of fluorescence enhancement on pH for compounds I-1 (4A), I-3 (4B) and I-4 (4C). • Figure 5 is a graph representing fluorescence intensities of compound I-1 (5 µM) in presence of a range of metal ions in a MOPS buffer (MOPS 30 mM, KCl 100 mM, pH 7.2). The concentration of cations is 10^-3 M. • Figure 6 is a graph representing CCK-8 test results for compound I-1 indicating cytotoxicity. The probe was incubated with Chinese hamster ovary cells (CHO-K1) for 2 hours at 37°C. • Figure 7 is a dose response diagram for F98 cells incubated with pH probe I-1. • Figure 8 is a graph representing the fluorescence spectrum for the dual-fluorophore I-5 (5 µM) measured in an aqueous MOPS buffered solution/MeOH, 91/9. • Figure 9 is a plot of I∼612/I439 versus pH at excitation wavelength 405 nm for compound I-5. I∼612 and I439 are the respective fluorescence intensities of the system at ∼612nm corresponding to the X-rhodamine red-emission and at 439nm corresponding to the acridone blue-emission.
The peak centred at 439 nm corresponding to emission from the acridone fluorophore and the peak centred at 612 nm to that of the X-rhodamine. The blue acridone emission is not dependent on pH while the red X-rhodamine emission is dependent on pH.
In order to visualize the intensity ratio between the two emission signals a plot of I∼612/I439 versus pH was plotted (figure 9). I∼612 and I439 are the respective fluorescence intensities of the system at ∼612 nm corresponding to the X-rhodamine red-emission and at 439 nm corresponding to the acridone blue-emission.

The conditions of series [7]: in absolute ethanol; reference standard; cited from earlier work.
The subject of series [8] is CHO-K1 cells. Kind of series: Cytotoxicity, CCK-8 cell counting kit. The format is cell-based, Chinese hamster. The settings on record: 1% Triton; positive control. As to the method: Cytotoxicity: CHO-K1 cells (20,000 per well) were seeded in 96 multiple well plates for 24 h before the experiment. Cells (40,000 per well) were incubated with the fluorescent compounds in 100 µL DMEM for 2h at 37°C. The incubation medium was replaced by 100µL fresh DMEM containing 10% of cell-counting solution (Dojindo Laboratories) and further incubated for 2h at 37°C. The absorbance was measured at 450 nm (reference at 620 nm) and was directly related to the number of living cells. Experiments were done in triplicate and repeated twice.
To determine cytotoxicity a CCK-8 cell counting kit was used. This can be bought commercially and relies upon the reduction of a highly water-soluble tetrazolium salt (WST-8). This compound is slightly yellow in color, however, upon reduction to its corresponding formazan species it becomes bright orange. The optical density of the absorbance corresponding to the orange formazan species, detected at 450nm, can be measured and correlated to the number of living cells. A decrease in optical density corresponds directly to a decrease in the quantity of formazan molecules indicating fewer living cells due to cell death/cytotoxicity. The reduction of WST-8 is achieved by exploiting the redox reactions of NAD+, a coenzyme found in all living cells. Cellular NAD+ is constantly being reduced to NADH by dehydrogenases as a natural part of a cell's metabolism. […]

Where [9] appears, read: 5 µM, aqueous MOPS buffered solution/MeOH, 91/9.

As for `C#CCCCn1c2ccccc2c(=O)c2ccccc21`, in series [1], the λabs stood at 408 nm and the λem came to 425 nm. This compound also yielded an FWHM in series [1] (full width at half maximum) of 49.
In the case of `[N-]=[N+]=NCCCNC(=O)c1cc(C2=c3cc4c5c(c3Oc3c2cc2c6c3CCCN6CCC2)CCC[N+]=5CCC4)ccc1O` [Compound I-1], in series [2], the “fluorescence intensity of cells at increasing concentrations of probe” value was “increase of fluorescence with increasing concentration of probe”. Moreover, the ε was 26706 M⁻¹ cm⁻¹ in series [3] (OFF, deprotonated form: pH 10) and 26742 M⁻¹ cm⁻¹ in series [3] (ON, protonated form: pH 4). In addition, the λabs in series [3] (OFF, deprotonated form: pH 10) is recorded as 574 nm; in series [3] (ON, protonated form: pH 4), 580 nm. Moreover, the absorbs light at in series [3] (red region of the spectrum) was determined as 580 nm. The pKa in series [4] is 3.96. Also, the λem in series [5] (OFF, deprotonated form: pH 10) was found to be 596 nm; in series [5] (ON, protonated form: pH 4), 600 nm. In addition, the Φ came to 0.009 in series [5] (OFF, pH 10) and 0.254 in series [5] (ON, pH 4). The “Dynamic Range” value in series [5] came out at 88. In addition, the “ΦON/ ΦOFF” value in series [5] was 28.
For `C#CCOC(=O)N1CCN(C(=O)c2cc(C3=c4cc5c6c(c4Oc4c3cc3c7c4CCCN7CCC3)CCC[N+]=6CCC5)ccc2O)CC1` [Compound I-3], the ε in series [3] (OFF, deprotonated form: pH 10) was determined as 49298 M⁻¹ cm⁻¹; in series [3] (ON, protonated form: pH 4) it was 72405 M⁻¹ cm⁻¹. Also, the λabs was found to be 575 nm in series [3] (OFF, deprotonated form: pH 10) and 580 nm in series [3] (ON, protonated form: pH 4). In series [4], the pKa was 7.68. Moreover, the λem is on record as 602 nm in series [5] (OFF, deprotonated form: pH 10) and 601 nm in series [5] (ON, protonated form: pH 4). Moreover, the Φ in series [5] (OFF, pH 10) was 0.016; in series [5] (ON, pH 4), 0.640. Moreover, in series [5], the “Dynamic Range” value turned out to be 86. For the same compound, the “ΦON/ ΦOFF” value in series [5] is on record as 40.
With `C#CCN1CCN(C(=O)c2cc(C3=c4cc5c6c(c4Oc4c3cc3c7c4CCCN7CCC3)CCC[N+]=6CCC5)ccc2O)CC1` [Compound I-4], the ε was determined as 20712 M⁻¹ cm⁻¹ in series [3] (OFF, deprotonated form: pH 10) and 35109 M⁻¹ cm⁻¹ in series [3] (ON, protonated form: pH 4). The λabs in series [3] (OFF, deprotonated form: pH 10) worked out at 574 nm; in series [3] (ON, protonated form: pH 4), 580 nm. The pKa in series [4] is 7.64. For the same compound, the λem in series [5] (OFF, deprotonated form: pH 10) turned out to be 600 nm; in series [5] (ON, protonated form: pH 4), 601 nm. The Φ in series [5] (OFF, pH 10) worked out at 0.023; in series [5] (ON, pH 4), 0.798. The “Dynamic Range” value in series [5] was determined as 98. Besides, in series [5], the “ΦON/ ΦOFF” value is on record as 35.
With `O=C(NCCCn1cc(CCCn2c3ccccc3c(=O)c3ccccc32)nn1)c1cc(C2=c3cc4c5c(c3Oc3c2cc2c6c3CCCN6CCC2)CCC[N+]=5CCC4)ccc1O` [Compound I-5], in series [6] (setting [9]), the “emission peak of the X-rhodamine” value came to 612 nm and the “emission peak of the acridone fluorophore” value came out at 439 nm. Further, in series [6] (excitation wavelength 405 nm, as the system was acidified), the “I∼612/I439 ratio” value is given as “four-fold increase”.
As for `O=C(O)c1ccccc1C1=c2cc3c4c(c2Oc2c1cc1c5c2CCCN5CCC1)CCC[N+]=4CCC3.[Cl-]` [Rhodamine 101], the Φ in series [7] was 1.0.
Regarding Triton, the cell death result in series [8] is on record as “total cell death”.
